Article PMC6272448, “Synthesis, ^18F-Radiolabelling and Biological Characterization of Novel Fluoroalkylated Triazine Derivatives for in Vivo Imaging of Phosphodiesterase 2A in Brain via Positron Emission Tomography” (Molecules, 2015)

Legend:
PDE2A = molecular target: T1, PDE2A (Rattus norvegicus, UniProt Q01062); test: in vitro autoradiography on sagittal rat brain sections; type: binding; settings: sagittal rat brain slices, ~1 MBq/mL, 60 min incubation
T1 construct: from tissue; host or cells: sagittal brain sections of female SPRD rats
T1 sequence (Q01062 1-928): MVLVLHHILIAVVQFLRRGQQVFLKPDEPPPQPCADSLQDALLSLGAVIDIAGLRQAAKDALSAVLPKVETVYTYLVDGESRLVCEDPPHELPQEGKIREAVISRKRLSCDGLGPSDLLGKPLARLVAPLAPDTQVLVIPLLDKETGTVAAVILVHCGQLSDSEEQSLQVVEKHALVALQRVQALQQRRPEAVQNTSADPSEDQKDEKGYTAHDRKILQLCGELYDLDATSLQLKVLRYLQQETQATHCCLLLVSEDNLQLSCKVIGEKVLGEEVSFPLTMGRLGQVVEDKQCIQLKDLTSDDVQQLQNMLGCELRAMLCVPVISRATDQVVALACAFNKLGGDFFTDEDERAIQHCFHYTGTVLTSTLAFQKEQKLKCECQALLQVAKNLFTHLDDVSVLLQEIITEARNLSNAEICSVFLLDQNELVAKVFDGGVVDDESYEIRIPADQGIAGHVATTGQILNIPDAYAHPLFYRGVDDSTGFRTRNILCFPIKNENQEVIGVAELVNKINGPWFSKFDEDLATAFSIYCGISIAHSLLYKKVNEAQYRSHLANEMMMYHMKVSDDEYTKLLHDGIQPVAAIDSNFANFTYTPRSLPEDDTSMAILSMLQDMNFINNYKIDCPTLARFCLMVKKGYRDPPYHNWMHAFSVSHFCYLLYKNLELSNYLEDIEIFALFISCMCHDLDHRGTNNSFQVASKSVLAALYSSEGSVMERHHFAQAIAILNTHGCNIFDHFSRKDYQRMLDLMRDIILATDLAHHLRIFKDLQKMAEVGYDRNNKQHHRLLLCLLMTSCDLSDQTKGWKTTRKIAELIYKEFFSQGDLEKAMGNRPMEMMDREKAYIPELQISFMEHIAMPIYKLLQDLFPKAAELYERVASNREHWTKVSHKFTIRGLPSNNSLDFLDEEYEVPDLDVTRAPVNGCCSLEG
Procedure: In vitro autoradiographic studies were accomplished by incubating sagittal sections of rat brain with [^18F]TA3 or [^18F]TA4. […] The images shown in Figure 6 indicate region-specific accumulation of both radioligands [^18F]TA3 and [^18F]TA4, which is consistent with the distribution pattern of PDE2A protein in rat brain [9, 11]. Therefore, we assume that the novel radioligands might be appropriate for in vitro imaging of PDE2A.
Frozen sagittal brain sections obtained from female SPRD rats (10–12 weeks old) were thawed, dried in a stream of cold air, and preincubated for 20 min with incubation buffer (50 mM TRIS-HCl, pH 7.4, 120 mM NaCl, 5 mM KCl, 2 mM CaCl2, 5 mM MgCl2) at ambient temperature. Brain sections were incubated with ~1 MBq/mL of [^18F]TA3 or [^18F]TA4 in incubation buffer for 60 min at ambient temperature. Afterwards sections were washed twice with 50 mM TRIS-HCl (pH 7.4) for 2 min at 4 °C, dipped briefly in ice-cold deionized water, dried in a stream of cold air and exposed for 60 min to an ^18F-sensitive image plate that was analyzed afterwards using an image plate scanner (HD-CR 35; Duerr NDT GmbH, Bietigheim Bissingen, Germany).

[1] = in vivo metabolism in mice, conventional extraction and RP-HPLC; settings: CD-1 mice, 30 min p.i., 150 MBq, extraction + RP-HPLC
Procedure: In vivo metabolism of [^18F]TA3 and [^18F]TA4 was investigated in plasma and brain samples obtained from CD-1 mice at 30 min post injection of 150 MBq of each radioligand. Analysis of the samples was performed after protein precipitation and twofold extraction using an organic solvent. […] In brain samples, 50% of total activity were represented by intact [^18F]TA3 (Figure 7; recovery: 65%).
The radioligands [^18F]TA3 or [^18F]TA4 (~60 MBq in 150 µL isotonic saline) were injected via the tail vein in female CD-1 mice (10–12 weeks old). Brain and blood samples were obtained at 30 min p.i., plasma separated by centrifugation (14,000× g, 1 min), and brain homogenized in ~1 mL isotonic saline on ice (10 strokes of a PTFE plunge at 1000 rpm in a borosilicate glass cylinder; Potter S Homogenizer, B. Braun Melsungen AG, Melsungen, Germany).
Twofold extractions of plasma (2 × 50 µL, 30 min p.i.) and brain samples (2 × 250 µL, 30 min p.i.) were performed using a mixture of ice-cold acetone/water (8:2, v/v; plasma or brain sample/organic solvent, 1:4, v/v). The samples were vortexed for 1 min, incubated on ice for 10 min (first extraction) or 5 min (second extraction) and centrifuged at 10,000 rpm for 5 min. Supernatants were collected and the precipitates were re-dissolved in ice-cold acetone/water for the second extraction. Aliquots from supernatants of each extraction step were taken. Activity thereof and of the precipitates was quantified using an automated gamma counter (1480 WIZARD, Fa. Perkin Elmer). The supernatants from both extractions were combined, concentrated under nitrogen stream at 70 °C and analyzed by radio-HPLC (system B).

Row | intact radioligand in brain [1] | non-metabolized (intact) radioligand in plasma [1] | Structure (SMILES) | regional binding in autoradiography (PDE2A)
1 | 50 % of total activity | 8 % of total activity | COc1ccc2nnc3c(C)nc(-c4cc(OCCC[18F])ccc4F)n3c2n1 [[^18F]TA3] | higher binding densities in cortex and striatum than in cerebellum
2 | No intact [^18F]TA4 was detectable | 6 % of total activity | COc1ccc2nnc3c(C)nc(-c4cc(OCCCC[18F])ccc4F)n3c2n1 [[^18F]TA4] | also binds to the olfactory tubercle, colliculi and partly to cerebellum
